Data taken from BindingDB's records for doi:10.1016/0014-2999(95)00786-5 (Cnrs Upr 9023, 1996).
Where “and” joins values, the source holds several entries; their conditions need not be identical. Equal values may be shown once. Where a name gives a salt, the structure may show the parent alone.

Tests used:
[1] = biological target: 5-hydroxytryptamine receptor 4 (Mus musculus, UniProt P97288)
[2] = biological target: 5-hydroxytryptamine receptor 4 (Homo sapiens, UniProt Q13639)
5-hydroxytryptamine receptor 4 (Homo sapiens, UniProt Q13639), sequence (Q13639 whole entry): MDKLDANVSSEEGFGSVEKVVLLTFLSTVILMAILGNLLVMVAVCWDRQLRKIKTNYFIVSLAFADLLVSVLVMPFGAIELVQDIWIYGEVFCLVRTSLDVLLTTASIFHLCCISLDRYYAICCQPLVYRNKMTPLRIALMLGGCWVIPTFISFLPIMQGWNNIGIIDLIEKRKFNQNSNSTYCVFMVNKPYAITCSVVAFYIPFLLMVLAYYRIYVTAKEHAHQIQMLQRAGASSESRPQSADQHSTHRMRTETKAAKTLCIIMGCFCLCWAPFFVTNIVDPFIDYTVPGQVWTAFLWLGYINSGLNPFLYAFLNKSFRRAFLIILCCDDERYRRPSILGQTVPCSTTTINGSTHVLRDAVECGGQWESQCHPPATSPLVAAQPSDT

5-hydroxytryptamine receptor 4 (Mus musculus, UniProt P97288), sequence (P97288 whole entry): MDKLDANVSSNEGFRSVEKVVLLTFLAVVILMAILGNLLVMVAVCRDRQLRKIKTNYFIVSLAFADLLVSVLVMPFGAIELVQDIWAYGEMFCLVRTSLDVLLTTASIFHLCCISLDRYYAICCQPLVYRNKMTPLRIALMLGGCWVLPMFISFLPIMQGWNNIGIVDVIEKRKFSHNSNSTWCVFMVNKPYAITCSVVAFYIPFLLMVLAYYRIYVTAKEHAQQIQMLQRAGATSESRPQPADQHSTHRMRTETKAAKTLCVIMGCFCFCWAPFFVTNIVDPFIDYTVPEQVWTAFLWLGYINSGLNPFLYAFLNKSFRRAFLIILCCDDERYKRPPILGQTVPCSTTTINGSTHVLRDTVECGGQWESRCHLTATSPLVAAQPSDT

| Compound | Ki [1] | Ki [2] [nM] |
| --- | --- | --- |
| CN1C2CCC1CC(NC(=O)n1c(=O)[nH]c3ccccc31)C2 (stereo not drawn) [DAU 6215] | 224 nM |  |
| CCN(CC)CCOC(=O)c1cc(Cl)c(N)cc1OC [SDZ-205557] | 6.3 nM | 6.3 |
| CC(C)n1c(=O)n(C(=O)NC2C[C@H]3CC[C@@H](C2)N3C)c2ccccc21 (stereo partly drawn) [BIMU 8] | 25.1 nM | 79.4 |
| COc1ccc2[nH]cc(C3=CCCNC3)c2c1 | 603 nM |  |
| COc1[nH]c2ccc(F)cc2c1C(=O)OCC1CCN(CCNS(C)(=O)=O)CC1 [GR-125487] | 0.03 nM |  |
| CCn1c(=O)n(C(=O)NC2CC3CCC(C2)N3C)c2ccccc21 (stereo not drawn) [BIMU 1] | 53.7 nM |  |
| COc1cc(N)c(Cl)cc1C(=O)NC1CCN(Cc2ccccc2)CC1 [4-Amino-N-(1-benzyl-piperidin-4-yl)-5-chloro-2-methoxy-benzamide(Clebopride)] | 53.7 nM |  |
| NCCc1c[nH]c2ccc(O)cc12 [[3H]-5-HT] | 79.4 nM |  |
| COc1cc(N)c(Cl)cc1C(=O)NC1CCN(CCCC(=O)N2CCC(N(C)C)CC2)CC1OC (stereo not drawn) [4-Amino-5-chloro-N-(1-{4-[4-(dimethylamino)-1-piperidinyl]-4-oxobutyl}-3-methoxy-4-piperidinyl)-2-methoxybenzamide] | 1.38 nM |  |
| COc1ccc2[nH]c(=O)n(C(=O)OC3CC4CCC(C3)N4C)c2c1 (stereo not drawn) [DAU 6285] | 26.9 nM | 63.1 |
| COc1cc(N)c(Cl)cc1C(=O)NC1CN2CCC1CC2 (stereo not drawn) [ZACOPRIDE,R] | 1070 nM and 302 nM and 224 nM |  |
| COc1ccc2[nH]cc(CCN)c2c1 [tryptamine, 5-Methoxy] | 525 nM | 501 |
| Cn1cc(C(=O)OCC2CCN(CCNS(C)(=O)=O)CC2)c2ccccc21 [GR 113808] | 0.31 nM |  |
| COc1cc(N)c(Cl)cc1C(=O)NC1CCN(CCCOc2ccc(F)cc2)CC1OC (stereo not drawn) [4-amino-5-chloro-N-(1-(3-(4-fluorophenoxy)propyl)-3-methoxypiperidin-4-yl)-2-methoxybenzamide] | 51.3 nM |  |
| CCCC[N+]12CCC(C1)C(NC(=O)c1cc(Cl)c(N)cc1OC)CC2 (stereo not drawn) [SB205149] | 37.1 nM |  |
| CN1C2CCC1CC(OC(=O)c1c[nH]c3ccccc13)C2 (stereo not drawn) | 158 nM | 200 |
| CCN(CC)CCNC(=O)c1cc(Cl)c(N)cc1OC [4-amino-5-chloro-N-[2-(diethylamino)ethyl]-2-methoxy-benzamide;hydrochloride] | 3980 nM |  |
| COc1cc(N)c(Cl)cc1C(=O)NC1CCN2CCCC1C2 (stereo not drawn) [NSC_3035240] | 97.7 nM |  |
